From patent publication US20040024231A1, “17Alpha fluoroalkyl steroids, method for producing the same and pharmaceutical compositions containing said compounds” (priority 2000, published 2004)

Each compound was assayed against T1, androgen receptors (Homo sapiens, UniProt P10275) (assay: receptor binding affinities to the androgen receptors (RBA)). Details: receptor binding affinity to the androgen receptors; R 1881 (Methyltrienolone) = 100.
T1 sequence (P10275 1-920): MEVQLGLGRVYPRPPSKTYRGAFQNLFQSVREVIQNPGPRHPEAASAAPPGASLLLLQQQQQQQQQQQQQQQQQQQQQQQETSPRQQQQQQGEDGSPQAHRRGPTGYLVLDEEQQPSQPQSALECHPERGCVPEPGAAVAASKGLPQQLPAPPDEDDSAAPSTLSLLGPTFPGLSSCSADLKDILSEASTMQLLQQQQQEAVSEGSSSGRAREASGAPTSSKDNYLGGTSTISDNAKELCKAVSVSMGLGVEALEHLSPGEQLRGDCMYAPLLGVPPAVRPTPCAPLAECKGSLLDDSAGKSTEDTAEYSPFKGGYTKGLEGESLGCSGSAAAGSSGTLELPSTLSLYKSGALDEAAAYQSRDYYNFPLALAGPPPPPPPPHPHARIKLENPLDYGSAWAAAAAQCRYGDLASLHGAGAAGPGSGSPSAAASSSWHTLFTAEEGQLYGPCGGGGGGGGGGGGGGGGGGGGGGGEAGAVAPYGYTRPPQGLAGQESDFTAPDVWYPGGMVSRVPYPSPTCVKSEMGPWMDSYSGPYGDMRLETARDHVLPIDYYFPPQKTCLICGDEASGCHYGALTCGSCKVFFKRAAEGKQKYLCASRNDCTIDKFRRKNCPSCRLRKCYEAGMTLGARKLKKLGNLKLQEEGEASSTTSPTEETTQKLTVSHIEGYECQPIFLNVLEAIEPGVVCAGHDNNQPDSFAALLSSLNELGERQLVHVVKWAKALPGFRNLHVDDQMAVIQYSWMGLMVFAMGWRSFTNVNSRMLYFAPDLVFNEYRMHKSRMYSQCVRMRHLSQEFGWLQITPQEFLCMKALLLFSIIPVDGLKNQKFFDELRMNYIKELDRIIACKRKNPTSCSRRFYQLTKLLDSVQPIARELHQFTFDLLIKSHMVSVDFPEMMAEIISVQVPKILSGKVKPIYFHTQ

SMILES	RBA [%]
CC12CCC3C4CCC(=O)C(O)=C4CCC3C1CCC2(O)C(F)(F)F (stereo not drawn) [17β,4-Dihydroxy-17α-trifluoromethyl-estr-4-en-3-one]	15
CC12CCC(=O)C=C1CCC1C2C(O)CC2(C)C1CCC2(O)C(F)(F)F (stereo not drawn) [17β,11β-Dihydroxy-17α-trifluoromethyl-androst-4-en-3-one]	8.6
C[C@]1(O)CC[C@H]2[C@@H]3CCC4=CC(=O)CCC4=C3C=C[C@@]21C [R 1881 (Methyltrienolone), Methyltrienolone, reference compound]	100
CC12CCC3C4CCC(=O)C=C4CCC3C1CCC2(O)C(F)(F)C(F)(F)F (stereo not drawn) [17β-Hydroxy-17α-pentafluoroethyl-estr-4-en-3-one]	21
C[C@]12CCC(=O)C=C1CC[C@@H]1[C@@H]2CC[C@@]2(C)[C@H]1CC[C@@]2(O)C(F)(F)F [17β-Hydroxy-17α-trifluoromethyl-androst-4-en-3-one]	9.4
CC1CC2=CC(=O)CCC2C2CCC3(C)C(CCC3(O)C(F)(F)C(F)(F)F)C12 (stereo not drawn) [17β-Hydroxy-17α-pentafluoroethyl-7α-methyl-estr-4-en-3-one]	34
CC1CC2=CC(=O)CCC2(C)C2CCC3(C)C(CCC3(O)C(F)(F)F)C12 (stereo not drawn) [17β-Hydroxy-17α-trifluoromethyl-7α-methyl-androst-4-en-3-one]	30
CC12CCC(=O)C(Cl)=C1CCC1C2CCC2(C)C1CCC2(O)C(F)(F)F (stereo not drawn) [17β-Hydroxy-17α-trifluoromethyl-4-chloro-androst-4-en-3-one]	20
CC12CCC3C4CCC(=O)C(Cl)=C4CCC3C1CCC2(O)C(F)(F)C(F)(F)F (stereo not drawn) [17β-Hydroxy-17α-pentafluoroethyl-4-chloro-estr-4-en-3-one]	27
CC1CC2=CC(=O)CCC2C2CCC3(C)C(CCC3(O)C(F)(F)F)C12 (stereo not drawn) [17β-Hydroxy-17α-trifluoromethyl-7α-methyl-estr-4-en-3-one]	40
CC12CCC3C4CCC(=O)C(O)=C4CCC3C1CCC2(O)C(F)(F)C(F)(F)F (stereo not drawn) [17β,4-Dihydroxy-17α-pentafluoroethyl-estr-4-en-3-one]	20
CC12CCC3C4CCC(=O)C(Cl)=C4CCC3C1CCC2(O)C(F)(F)F (stereo not drawn) [17β-Hydroxy-17α-trifluoromethyl-4-chloro-estr-4-en-3-one]	41
